From article PMC8770518, “Evolutionary alterations in gene expression and enzymatic activities of gibberellin 3-oxidase 1 in Oryza” (Communications Biology, 2022) come the findings set out here.

Test [1] deals with T1, OsGA3ox1 (Oryza sativa, UniProt Q6AT12).
T1 construct: gene GA3OX1
In words: in vitro 3-oxidation, gas chromatography of products. The test is classed as biochemical. To be noted: products GA4 and GA7.

In a further test the target is T2, OsGA3ox2 (Oryza sativa, UniProt Q9FU53).
T2 construct: gene GA3OX2; crystallised without Fe(II)
Description: X-ray crystallography, […] A. Type of test: binding. Particulars: Fe(II) omitted, active site.

Test [2] concerns the target T3, OsGA3ox1 (Oryza sativa, UniProt Q6AT12, F235Y).
T3 construct: gene GA3OX1
T3 sequence (Q6AT12 1-384 F235Y): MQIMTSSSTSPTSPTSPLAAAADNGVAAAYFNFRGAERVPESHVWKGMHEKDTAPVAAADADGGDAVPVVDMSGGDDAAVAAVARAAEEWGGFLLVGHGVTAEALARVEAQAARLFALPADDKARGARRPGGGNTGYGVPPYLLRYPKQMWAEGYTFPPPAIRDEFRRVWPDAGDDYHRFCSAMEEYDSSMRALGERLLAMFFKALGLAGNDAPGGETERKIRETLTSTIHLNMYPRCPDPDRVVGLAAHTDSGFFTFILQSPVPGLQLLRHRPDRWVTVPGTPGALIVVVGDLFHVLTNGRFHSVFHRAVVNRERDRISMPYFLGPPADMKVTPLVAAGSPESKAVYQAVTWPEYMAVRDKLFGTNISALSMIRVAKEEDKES
Description: in vitro 3-oxidation, gas chromatography of products. The test is classed as biochemical. To be noted: products GA4 and GA7.

For a further test, the target named is T4, GID1 (Oryza sativa, UniProt Q6L545).
T4 construct: yeast two-hybrid fusions: GID1 bait in pGBKT7, SLR1 prey in pGADT7; with DELLA protein SLR1
T4 sequence (Q6L545 1-354): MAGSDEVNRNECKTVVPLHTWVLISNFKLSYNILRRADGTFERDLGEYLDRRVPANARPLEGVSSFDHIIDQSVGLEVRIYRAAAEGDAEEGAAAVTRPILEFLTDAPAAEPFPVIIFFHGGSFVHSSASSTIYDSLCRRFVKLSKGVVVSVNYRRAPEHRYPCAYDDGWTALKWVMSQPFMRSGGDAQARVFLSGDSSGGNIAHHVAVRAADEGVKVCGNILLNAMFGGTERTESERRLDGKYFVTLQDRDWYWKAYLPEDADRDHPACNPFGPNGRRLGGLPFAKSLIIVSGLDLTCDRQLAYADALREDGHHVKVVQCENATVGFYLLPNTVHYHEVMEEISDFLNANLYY
T4 sequence (Q7G7J6 1-625 partner): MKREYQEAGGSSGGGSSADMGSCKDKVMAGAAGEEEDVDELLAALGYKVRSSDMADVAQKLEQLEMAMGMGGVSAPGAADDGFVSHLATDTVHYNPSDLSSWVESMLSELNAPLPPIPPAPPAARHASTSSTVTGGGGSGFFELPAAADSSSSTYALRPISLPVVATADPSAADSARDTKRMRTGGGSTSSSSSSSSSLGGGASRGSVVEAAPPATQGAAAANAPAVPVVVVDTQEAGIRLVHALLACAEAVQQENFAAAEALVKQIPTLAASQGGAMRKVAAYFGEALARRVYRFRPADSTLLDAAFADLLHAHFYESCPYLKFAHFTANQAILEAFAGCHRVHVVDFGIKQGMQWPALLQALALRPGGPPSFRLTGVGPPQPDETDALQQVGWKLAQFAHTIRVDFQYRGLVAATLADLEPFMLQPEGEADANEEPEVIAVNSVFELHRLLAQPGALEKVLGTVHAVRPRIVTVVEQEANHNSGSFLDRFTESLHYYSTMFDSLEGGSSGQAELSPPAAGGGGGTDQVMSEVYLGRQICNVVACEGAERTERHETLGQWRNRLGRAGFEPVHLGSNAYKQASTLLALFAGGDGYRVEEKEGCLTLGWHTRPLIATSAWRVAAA
In words: yeast two-hybrid GID1-SLR1 interaction (-His growth). The test is classed as cell-based. To be noted: GA-dependent interaction with SLR1; GA 1e-10 to 1e-5 M.

T2 sequence (Q9FU53 whole entry): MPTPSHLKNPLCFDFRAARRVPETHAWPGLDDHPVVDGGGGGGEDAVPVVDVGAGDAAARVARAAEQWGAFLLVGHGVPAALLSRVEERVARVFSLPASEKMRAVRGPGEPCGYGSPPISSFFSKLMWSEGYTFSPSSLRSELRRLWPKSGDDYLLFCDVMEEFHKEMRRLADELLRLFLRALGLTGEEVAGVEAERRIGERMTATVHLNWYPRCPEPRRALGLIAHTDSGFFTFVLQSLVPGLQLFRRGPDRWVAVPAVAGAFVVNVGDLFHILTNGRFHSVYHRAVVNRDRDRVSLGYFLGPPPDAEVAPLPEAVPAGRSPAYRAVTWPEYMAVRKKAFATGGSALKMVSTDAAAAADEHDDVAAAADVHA
T1 sequence (Q6AT12 whole entry): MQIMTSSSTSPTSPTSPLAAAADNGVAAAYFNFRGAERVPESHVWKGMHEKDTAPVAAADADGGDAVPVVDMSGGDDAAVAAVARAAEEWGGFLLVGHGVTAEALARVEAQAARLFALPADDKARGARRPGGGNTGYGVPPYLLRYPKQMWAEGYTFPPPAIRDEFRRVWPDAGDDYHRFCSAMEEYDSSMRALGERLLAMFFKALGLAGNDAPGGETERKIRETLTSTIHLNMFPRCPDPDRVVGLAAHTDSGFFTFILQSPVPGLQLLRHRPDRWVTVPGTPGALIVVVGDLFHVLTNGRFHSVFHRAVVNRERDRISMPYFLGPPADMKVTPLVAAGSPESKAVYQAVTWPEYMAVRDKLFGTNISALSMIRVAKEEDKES

For the compound `C=C1C[C@]23C[C@H]1CC[C@H]2[C@@]12CCC[C@@](C)(C(=O)O1)[C@H]2[C@@H]3C(=O)O` [GA9], the “in vitro 3-oxidation, gas chromatography of products” value on OsGA3ox1 [1] is “GA biosynthesis activities of recombinant OsGA3ox1 and OsGA3ox2 for GA9 as a substrate”; at OsGA3ox1 [2] it was “The productivity of GA7 was lower in F235Y-OsGA3ox1 than that in OsGA3ox1”. Also, at OsGA3ox2 (complex with 2-oxoglutarate, 0.5 mM GA9, pH 7.0), the “X-ray crystallography, 1.9 A” value is “structure of the OsGA3ox2 complex with (co-) substrates; GA9 and 2-oxoglutarate (2OG)”.

As to `C=C1C[C@]23C[C@H]1CC[C@H]2[C@@]12CC[C@H](O)[C@@](C)(C(=O)O1)[C@H]2[C@@H]3C(=O)O` [GA4], the “yeast two-hybrid GID1-SLR1 interaction (-His growth)” value at GID1 is reported as “GA7 showed the highest efficiency among all GA ligands, followed by GA4”.

Take `O=C(O)CCC(=O)C(=O)O` [2-oxoglutarate]: the “X-ray crystallography, 1.9 A” value on OsGA3ox2 (complex with GA9, 10 mM 2-oxoglutarate, pH 7.0) is “structure of the OsGA3ox2 complex with (co-) substrates; GA9 and 2-oxoglutarate (2OG)”.

For `C=C1C[C@]23C[C@H]1CC[C@H]2[C@@]12C=C[C@H](O)[C@@](C)(C(=O)O1)[C@H]2[C@@H]3C(=O)O` [GA7], the “yeast two-hybrid GID1-SLR1 interaction (-His growth)” value at GID1 is recorded as “GA7 showed the highest efficiency among all GA ligands, followed by GA4”.
